Here are results for 20 compounds from patent publication US20090099167A1, “Organic compounds” (Novartis Institutes for Biomedical Research, priority 2004, published 2009).

The target in one series is c-Src kinase (Homo sapiens, UniProt P12931). Briefly: c-Src kinase inhibition. In kind it is biochemical. An excerpt: An appropriate assay is described in Andrejauskas-Buchdunger et al., Cancer Res. 52, 5353-8 (1992).
Another series concerns the target T1, human IGF-IR (Homo sapiens, UniProt P08069).
T1 construct: expresses the amino acid region 950-1337 of the mature peptide cytoplasmic domain of the human IGF-IR; made in house; host or cells: baculovirus (Bac-to-Bac)
The series can be described thus: IGF-1R tyrosine kinase assay, GST-IGF-1R. In kind it is biochemical. Particulars: Table 5; read-out: IGF-1R, IC50 class. The text has this:
The inhibition of IGF-1R and Ins-R can be determined as follows: The baculovirus donor vector pfbgx3IGFIRcd is used to generate a recombinant baculovirus that expresses the amino acid region 950-1337 of the mature peptide cytoplasmic domain of the human IGF-IR. To generate the cDNA fragment encoding the amino acid region 919-1343 of the intra-cytoplasmic kinase domain of the human insulin receptor, pC5hInsR is used. The fragments of the human IGF-IR and Ins-R are cloned, expressed and small-scale purified as a factor Xa-cleavable glutathione-S-transferase (GST)-fusion protein using the Bac-to-Bac™ system (GIBCO BRL) of recombinant baculovirus generation. Virus containing media is collected from the transfected cell culture and used for infection to increase its titer. Virus containing media obtained after two rounds of infection is used for large-scale protein expression. Cell extracts are prepared and loaded onto a glutathione-Sepharose (Pharmacia) column. After washing, the GST-tagged proteins are then eluted with a glutathione-containing buffer. Purified protein is stored at −70° C. in elution buffer. Tyrosine protein kinase assays with purified GST-IGF-1R and GST-ins-R are carried in a final volume of 30 μl containing 20 mM Tris-HCl, pH 7.6, 10 mM MgCl2, 0.01 mM Na3VO4, 1% DMSO, 1 mM DTT, 3 μg/ml poly(Glu,Tyr) 4:1 and 10 μM ATP (γ-[^33P]-ATP 0.1 μCi). The assay is performed in 96-well plates at ambient temperature for 20 min and terminated by addition of 25 μl 0.05 M EDTA pH 7.0. An aliquot of 40 μl is spotted with a multichannel dispenser on Whatman P81 membranes mounted in a Millipore Microtiter filter manifold connected to a low vacuum source. After elimination of liquid, the membrane is transferred to a sequence of 4 washing baths containing 0.5% H3PO4 and one with EtOH (shaking incubation for 10 min each), dried, mounted onto a Hewlett Packard TopCount manifold added 10 μl Microscint® and counted. Compounds of formula (I) show up to 90% inhibition of Ins-R at 10,000 nM, preferably between 60-90% inhibition. The inhibition of Tek can be determined as follows: The procedure of the expression, purification and assay these kinases has been described. Fabbro et al., Pharmacol. Ther. 82(2-3) 293-301 (1999). In brief, the glutathione S-transferase (GST) gene from the pAcG1 vector (Pharmingen) is excised with EcoRV and EcoRI and inserted into the cloning site of the Fast-Bac baculoviral vector (GIBCO) creating a 5530 bp vector with N-terminal cloning sites derived from the pAcG1 fusion vector (FBG0). The C-terminal cloning site may be any cloning site (from the Fast-Bac vector) downstream of the N-terminal cloning site used. N-terminally GST-fused (pAcG1, Pharmingen) KDR, Flt-1, Flk-1, Tek and PDGFR-β kinase domains are obtained from ProQinase, Freiburg, Germany. Tek is recloned into the FBG1 vector by EcoRI excision and ligation into EcoRI digested FBG1 (FBG1-Tek). The coding sequences for the whole cytoplasmic domain of c-Kit (aa 544-976) and c-Fms (aa 538-972) are amplified by PCR from human uterus and from human bone marrow cDNA libraries (Clontech), respectively. The amplified DNA fragments are fused to GST by cloning them into FBG1 as BamHI-EcoRI insertions, to yield FBG1-c-Kit and FBG1-c-Fms. Tek is recloned into the FBG0 transfer vector by EcoRI excision and ligation into EcoRI digested FBG0 (FBG-Tie2/Tek). FGFR-1 and c-met kinase domains are obtained by PCR from human A431 cells. N-terminal primers contain an overhanging EcoRI site, while C-terminal primers contain a XhoI site to aid cloning into the transfer vectors. After digestion of both the PCR fragments and FBG0 the cleavage products are gel-purified and ligated together to form the kinase constructs (FBG-Met, FBG-FGFR-1).

Where [1] appears, read: Table 5, read-out: c-scr, IC50 class.

The structures appear in SMILES notation. Where two headings read alike, the source gives them in different places.

Sequence of c-Src kinase (P12931 whole entry): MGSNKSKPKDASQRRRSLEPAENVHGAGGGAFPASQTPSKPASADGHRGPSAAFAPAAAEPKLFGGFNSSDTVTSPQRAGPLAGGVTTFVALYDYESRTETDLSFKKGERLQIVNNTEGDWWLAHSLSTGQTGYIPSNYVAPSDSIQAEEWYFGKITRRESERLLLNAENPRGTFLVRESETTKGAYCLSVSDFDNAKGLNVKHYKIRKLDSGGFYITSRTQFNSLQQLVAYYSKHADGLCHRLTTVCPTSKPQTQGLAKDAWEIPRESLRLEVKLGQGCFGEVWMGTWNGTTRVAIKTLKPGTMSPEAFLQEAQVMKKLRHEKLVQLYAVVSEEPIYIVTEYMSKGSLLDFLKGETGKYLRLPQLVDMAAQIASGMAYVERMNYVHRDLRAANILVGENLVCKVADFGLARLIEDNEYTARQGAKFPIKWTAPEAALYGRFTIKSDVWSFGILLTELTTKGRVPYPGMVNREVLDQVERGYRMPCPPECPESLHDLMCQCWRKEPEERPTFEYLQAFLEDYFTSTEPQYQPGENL
T1 sequence (P08069 980-1367): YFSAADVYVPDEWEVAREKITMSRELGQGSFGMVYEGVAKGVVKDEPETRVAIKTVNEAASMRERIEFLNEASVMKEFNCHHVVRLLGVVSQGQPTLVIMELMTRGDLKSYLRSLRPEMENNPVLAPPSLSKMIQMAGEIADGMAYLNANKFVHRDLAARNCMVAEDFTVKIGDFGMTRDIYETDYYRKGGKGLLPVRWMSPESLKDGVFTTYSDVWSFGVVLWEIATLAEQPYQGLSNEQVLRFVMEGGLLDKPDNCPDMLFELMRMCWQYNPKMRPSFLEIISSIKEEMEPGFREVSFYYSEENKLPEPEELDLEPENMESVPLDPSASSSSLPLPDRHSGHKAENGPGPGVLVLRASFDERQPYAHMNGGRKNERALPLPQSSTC

On to `COc1ccccc1-c1cnn2c(N)c(-c3cccc(O)c3)cnc12` [Example 48, 3-[7-Amino-3-(2-methoxy-phenyl)-pyrazolo[1,5-a]pyrimidin-6-yl]-phenol], for which the IC50 at c-Src kinase (Table 4, read-out: s-Scr, activity (IC50 for kinase inhibition)) is < 10 µM.

`Cc1nc2c(-c3cccc(N4CCN(C)CC4)c3)cnn2c(N)c1-c1cccc(Cl)c1` [Example 72, 6-(3-Chloro-phenyl)-5-methyl-3-[3-(4-methyl-piperazin-1-yl)-phenyl]-pyrazolo[1,5-a]pyrimidin-7-ylamine] registered a melting point of 110 to 115 °C. Further, the IC50 at human IGF-IR is > 10 µM. Further, the IC50 at c-Src kinase (setting [1]) is < 1 µM.

Compound `Cc1nc2c(-c3ccc(N4CCN(C)CC4)cc3)cnn2c(N)c1-c1cccc(Cl)c1` [Example 73, 6-(3-Chloro-phenyl)-5-methyl-3-[4-(4-methyl-piperazin-1-yl)-phenyl]-pyrazolo[1,5-a]pyrimidin-7-ylamine] showed a melting point of 113 to 115 °C. Also, at human IGF-IR, the IC50 was > 10 µM. Besides, the IC50 on c-Src kinase (setting [1]) was < 1 µM.

In turn, `COc1cc(N2CCN(C)CC2)ccc1-c1cnn2c(N)c(-c3cccc(Cl)c3)c(C)nc12` [Example 75, 6-(3-Chloro-phenyl)-3-[2-methoxy-4-(4-methyl-piperazin-1-yl)-phenyl]-5-methyl-pyrazolo[1,5-a]pyrimidin-7-ylamine] came in with a melting point of 215 to 217 °C.

With `COc1cc(N2CCN(C)CC2)ccc1-c1cnn2c(N)c(-c3cccc(O)c3)cnc12` [Example 76, 3-{7-Amino-3-[2-methoxy-4-(4-methyl-piperazin-1-yl)-phenyl]-pyrazolo[1,5-a]pyrimidin-6-yl}-phenol], the melting point was in the range of 217 to 220 °C.

Consider `CN1CCN(c2ccc(-c3cnn4c(N)c(-c5ccccc5Cl)cnc34)cc2)CC1` [Example 77, 6-(2-Chloro-phenyl)-3-[4-(4-methyl-piperazin-1-yl)-phenyl]-pyrazolo[1,5-a]pyrimidin-7-ylamine], for which the melting point fell in the range of 197 to 200 °C.

In turn, `CN1CCN(c2cccc(-c3cnn4c(N)c(-c5ccccc5Cl)cnc34)c2)CC1` [Example 78, 6-(2-Chloro-phenyl)-3-[3-(4-methyl-piperazin-1-yl)-phenyl]-pyrazolo[1,5-a]pyrimidin-7-ylamine] showed a melting point of 200 to 203 °C.

In turn, `Cc1nc2c(-c3ccc(N4CCN(C)CC4)cc3)cnn2c(N)c1-c1ccc(F)cc1` [Example 79, 6-(4-Fluoro-phenyl)-5-methyl-3-[4-(4-methyl-piperazin-1-yl)-phenyl]-pyrazolo[1,5-a]pyrimidin-7-ylamine] returned a melting point of 289 to 291 °C. The IC50 at human IGF-IR was > 10 µM. In addition, the IC50 at c-Src kinase (setting [1]) was < 1 µM.

`Cc1nc2c(-c3cccc(N4CCN(C)CC4)c3)cnn2c(N)c1-c1ccc(F)cc1` [Example 80, 6-(4-Fluoro-phenyl)-5-methyl-3-[3-(4-methyl-piperazin-1-yl)-phenyl]-pyrazolo[1,5-a]pyrimidin-7-ylamine] had a melting point of 204 to 206 °C. In addition, at human IGF-IR, the IC50 was > 10 µM. Moreover, on c-Src kinase (setting [1]), the half-maximal inhibitory concentration (IC50) was < 1 µM.

For the compound `Cc1nc2c(-c3cccc(N4CCN(C5CCN(C)CC5)CC4)c3)cnn2c(N)c1-c1cccc(Cl)c1` [Example 81, 6-(3-Chloro-phenyl)-5-methyl-3-{3-[4-(1-methyl-piperidin-4-yl)-piperazin-1-yl]-phenyl}-pyrazolo[1,5-a]pyrimidin-7-ylamine], the melting point lay within 180 to 185 °C. In addition, the IC50 on human IGF-IR was < 1 µM. Besides, the IC50 at c-Src kinase (setting [1]) is < 1 µM.

`Cc1nc2c(-c3cccc(N4CCN(C)CC4)c3)cnn2c(N)c1-c1ccc(F)c(Cl)c1` [Example 82, 6-(3-Chloro-4-fluoro-phenyl)-5-methyl-3-[3-(4-methyl-piperazin-1-yl)-phenyl]pyrazolo[1,5-a]pyrimidin-7-ylamine] had a melting point of 224 to 226 °C. Besides, the IC50 at human IGF-IR was > 10 µM. Moreover, the IC50 on c-Src kinase (setting [1]) was < 1 µM.

For the compound `Cc1nc2c(-c3ccc(N4CCN(C)CC4)cc3)cnn2c(N)c1-c1ccc(F)c(Cl)c1` [Example 83, 6-(3-Chloro-4-fluoro-phenyl)-5-methyl-3-[4-(4-methyl-piperazin-1-yl)-phenyl]-pyrazolo[1,5-a]pyrimidin-7-ylamine], the melting point was 264 to 265 °C. Moreover, the IC50 on human IGF-IR is > 10 µM. Besides, the IC50 at c-Src kinase (setting [1]) was < 1 µM.

With `Cc1nc2c(-c3cccc(N4CCN(C)CC4)c3)cnn2c(N)c1-c1cccc(Br)c1` [Example 84, 6-(3-Bromo-phenyl)-5-methyl-3-[3-(4-methyl-piperazin-1-yl)-phenyl]-pyrazolo[1,5-a]pyrimidin-7-ylamine], the melting point lay in the range of 107 to 113 °C. Further, the IC50 at human IGF-IR was > 10 µM. In addition, at c-Src kinase (setting [1]), the IC50 is < 1 µM.

`CN1CCN(c2cccc(-c3cnn4c(N)c(Cc5cccc(Br)c5)cnc34)c2)CC1` [Example 85, 6-(3-Bromo-benzyl)-3-[3-(4-methyl-piperazin-1-yl)-phenyl]pyrazolo[1,5-a]pyrimidin-7-ylamine] showed a melting point of 170 to 171 °C. The IC50 at human IGF-IR is > 10 µM. The IC50 on c-Src kinase (setting [1]) is < 1 µM.

Regarding `CN1CCN(c2cccc(-c3cnn4c(N)c(-c5cccc(Br)c5)cnc34)c2)CC1` [Example 86, 6-(3-Bromo-phenyl)-3-[3-(4-methyl-piperazin-1-yl)-phenyl]-pyrazolo[1,5-a]pyrimidin-7-ylamine], the melting point lay in the range of 195.3 to 197.2 °C. In addition, the IC50 on human IGF-IR was > 10 µM. Besides, the IC50 at c-Src kinase (setting [1]) is < 1 µM.

In turn, `Cc1nc2c(-c3cccc(N4CCOCC4)c3)cnn2c(N)c1-c1cccc(Cl)c1` [Example 87, 6-(3-Chloro-phenyl)-5-methyl-3-(3-morpholin-4-yl-phenyl)-pyrazolo[1,5-a]pyrimidin-7-ylamine] displayed a melting point of 165 to 167 °C. Further, the IC50 on human IGF-IR is > 10 µM. Moreover, the IC50 at c-Src kinase (setting [1]) was < 1 µM.

`COc1ccc(-c2cnn3c(N)c(-c4cccc(Cl)c4)c(C)nc23)cc1` [Example 88, 6-(3-Chloro-phenyl)-3-(4-methoxy-phenyl)-5-methyl-pyrazolo[1,5-a]pyrimidin-7-ylamine] gave a melting point of 171 to 172 °C. The IC50 on human IGF-IR was > 10 µM. Moreover, the IC50 on c-Src kinase (setting [1]) is < 1 µM.

In the case of `COc1ccc(-c2cnn3c(N)c(-c4cccc(Cl)c4)c(CF)nc23)cc1OC` [Example 92, 6-(3-Chloro-phenyl)-3-(3,4-dimethoxy-phenyl)-5-fluoromethyl-pyrazolo[1,5-a]pyrimidin-7-ylamine], the melting point was in the range of 228 to 230 °C. Also, the IC50 on human IGF-IR was > 10 µM.

For the compound `Cc1nc2c(-c3cccc(N4CC[N+](C)([O-])CC4)c3)cnn2c(N)c1-c1ccc(F)cc1` [Example 106, 6-(4-Fluoro-phenyl)-5-methyl-3-[3-(4-methyl-4-oxy-piperazin-1-yl)-phenyl]-pyrazolo[1,5-a]pyrimidin-7-ylamine], the results for the IC50 at human IGF-IR and at c-Src kinase (setting [1]) were > 10 µM and < 1 µM, respectively.

Turning to `Cc1nc2c(-c3cccc([N+]4([O-])CC[N+](C)([O-])CC4)c3)cnn2c(N)c1-c1ccc(F)cc1` (centres unmarked) [Example 107, 6-(4-Fluoro-phenyl)-5-methyl-3-[3-(4-methyl-1,4-dioxy-piperazin-1-yl)-phenyl]-pyrazolo[1,5-a]pyrimidin-7-ylamine], the IC50 on human IGF-IR was > 10 µM; at c-Src kinase (setting [1]), < 1 µM.
